Laboratory results from patent US11254651B2, “Histone methyltransferase inhibitors” (GLOBAL BLOOD THERAPEUTICS, INC., priority 2016, dated 2022).
Where a name gives a salt, the structure may show the parent alone.

Target: T1, G9a (Homo sapiens, UniProt Q96KQ7)
T1 sequence (Q96KQ7 1-1210): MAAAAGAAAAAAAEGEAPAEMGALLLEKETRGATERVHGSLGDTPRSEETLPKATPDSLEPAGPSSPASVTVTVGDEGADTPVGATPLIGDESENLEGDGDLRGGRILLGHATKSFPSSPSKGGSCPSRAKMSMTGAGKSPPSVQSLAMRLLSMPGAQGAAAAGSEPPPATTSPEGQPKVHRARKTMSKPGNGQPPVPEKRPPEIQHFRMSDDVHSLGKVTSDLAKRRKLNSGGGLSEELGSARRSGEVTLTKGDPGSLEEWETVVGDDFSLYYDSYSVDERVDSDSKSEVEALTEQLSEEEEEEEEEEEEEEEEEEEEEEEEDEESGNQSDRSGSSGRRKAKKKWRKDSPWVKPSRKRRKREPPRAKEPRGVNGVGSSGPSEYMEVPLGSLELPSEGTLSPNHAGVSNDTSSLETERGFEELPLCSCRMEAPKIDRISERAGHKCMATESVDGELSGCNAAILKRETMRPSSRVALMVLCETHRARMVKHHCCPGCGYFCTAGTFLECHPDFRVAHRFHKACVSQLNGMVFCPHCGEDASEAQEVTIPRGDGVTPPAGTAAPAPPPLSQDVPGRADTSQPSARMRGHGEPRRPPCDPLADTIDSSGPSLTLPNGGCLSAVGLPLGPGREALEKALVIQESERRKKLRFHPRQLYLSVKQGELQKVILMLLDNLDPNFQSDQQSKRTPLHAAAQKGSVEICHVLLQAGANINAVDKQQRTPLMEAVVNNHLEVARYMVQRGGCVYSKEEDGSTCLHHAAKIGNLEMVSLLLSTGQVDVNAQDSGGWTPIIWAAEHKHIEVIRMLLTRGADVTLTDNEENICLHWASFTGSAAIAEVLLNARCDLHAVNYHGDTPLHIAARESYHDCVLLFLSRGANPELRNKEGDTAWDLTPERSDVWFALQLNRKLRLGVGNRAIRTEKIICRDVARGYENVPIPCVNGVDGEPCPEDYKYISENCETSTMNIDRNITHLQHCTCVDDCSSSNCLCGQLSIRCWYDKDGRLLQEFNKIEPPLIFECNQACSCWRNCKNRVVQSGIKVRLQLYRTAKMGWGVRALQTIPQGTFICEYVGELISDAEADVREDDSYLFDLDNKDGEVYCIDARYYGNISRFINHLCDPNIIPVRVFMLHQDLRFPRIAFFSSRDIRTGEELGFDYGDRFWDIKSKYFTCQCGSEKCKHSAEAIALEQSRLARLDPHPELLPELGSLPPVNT
Test: G9a AlphaLISA enzymatic activity assay
Type: biochemical
Details: 0.15 nM G9a, 15 uM S-adenosyl-methionine, 100 nM biotinylated histone 3 peptide (1-21), 1 hour room temperature
Source text: The G9a AlphaLISA assay was used to detect the methyl modifications of a biotinylated histone H3 peptide by the compounds. These modifications are done by the histone methyl transferase activity of the G9a enzyme. The assay consists of reading a chemiluminescent signal at 615 nm; this signal is generated by a laser excitation at 680 nm that transfers a reactive singlet oxygen between the donor beads and acceptor beads. Donor beads are streptavidin conjugated and bind to the biotin on the peptide. Acceptor beads are conjugated with an antibody that recognizes the specific G9a methyl mark on the peptide. If there is a methyl mark on the peptide, the acceptor beads will bind to the peptide. Upon binding, the acceptor beads will be in close proximity (<200 nm) of the donor beads and when the donor beads are excited, the transfer of the oxygen can occur and a strong signal will be generated. If there is no methyl mark, the interaction between beads will not occur and signal will be at background levels.
For the assay, the following buffer was used to set up reactions: 50 mM Tris-HCl pH9, 50 mM NaCl, 0.01% Tween-20 and 1 mM DTT (added fresh prior to starting the reactions). The assay is set up by adding a final concentration of 0.15 nM G9a, 15 uM S-adenosyl-methionine and, 100 nM biotinylated histone 3 peptide (1-21). The reaction is incubated at room temperature for 1 hour, and subsequently quenched by the addition of the acceptor beads (anti-H3k9me2 AlphaLISA acceptor beads, PerkinElmer #AL117) at a final concentration of 20 ug/mL. The acceptor beads are incubated for 1 hour. After 1 hour, the donor beads are added at a final concentration of 20 ug/mL (Alpha Streptavidin donor beads, PerkinElmer #6760002). Donor beads are incubated for 0.5 hours. Both donor and acceptor beads are resuspended in AlphaLISA 5X Epigenetics Buffer 1 Kit (PerkinElmer #AL008) prior to addition to the reaction. All manipulations and incubations with the donor and acceptor beads are done in subdued light. Signal is detected in an EnVision plate reader in Alpha mode (see ACS Med Chem Lett. 2014 Jan. 2; 5(2):205-9. doi: 10.1021/m1400496h. eCollection 2014. Discovery and development of potent and selective inhibitors of histone methyltransferase g9a.)
Percent inhibition was calculated for each compound dilution and the concentration that produced 50% inhibition was calculated. This value is presented as the IC50.

| Compound | IC50 [nM] |
| --- | --- |
| COc1cc2c(NCC3(C)CC3)c3c(nc2cc1OCCCN1CCCC1)CCC3 [Entry 44, 7-methoxy-N-[(1-methylcyclopropyl)methyl]-6-[3-(pyrrolidin-1-yl)propoxy]-1H,2H,3H-cyclopenta[b]quinolin-9-amine formate] | 19 |
| COc1cc2c(NCC3CC3)c3c(nc2cc1OCC1CCN(C)C1)CCC3 (centres unmarked) [Entry 52, N-(cyclopropylmethyl)-7-methoxy-6-[(1-methylpyrrolidin-3-yl)methoxy]-1H,2H,3H-cyclopenta[b]quinolin-9-amine formate] | 65 |
| COc1cc2c(NC3CC(C)OC(C)C3)c3c(nc2cc1OCCCN1CCCC1)CCC3 (centres unmarked) [Entry 53, N-(2,6-dimethyloxan-4-yl)-7-methoxy-6-[3-(pyrrolidin-1-yl)propoxy]-1H,2H,3H-cyclopenta[b]quinolin-9-amine formate] | 21.6 |
| COc1cc2c(NC(C)C)c3ncccc3nc2cc1OCCCN1CCCC1 [Entry 122, 8-methoxy-N-(propan-2-yl)-7-[3-(pyrrolidin-1-yl)propoxy]benzo[b]1,5-naphthyridin-10-amine formate] | 23.8 |
| CCOc1c2ccccc2nc2cc(OCCCN3CCCC3)c(OC)cc12 [Entry 7, 9-ethoxy-2-methoxy-3-[3-(pyrrolidin-1-yl)propoxy]acridine formate] | 1400 |
| COc1cc2c(NCC(=O)O)c3ccccc3nc2cc1OCCCN1CCCC1 [Entry 104, 2-({2-methoxy-3-[3-(pyrrolidin-1-yl)propoxy]acridin-9-yl}amino)acetic acid formate] | 134 |
| COc1cc2c(NC3CCC(C)(O)CC3)c3ccccc3nc2cc1OCCCN1CCCC1 [Entry 99, (1R,4R)-4-({2-methoxy-3-[3-(pyrrolidin-1-yl)propoxy]acridin-9-yl}amino)-1-methylcyclohexan-1-ol trifluoroacetate] | 17 |
| COc1cc2c(NC3CCN(C(C)C)CC3)c3c(nc2cc1OCCCN1CCCC1)CCCC3 [Entry 16, 7-methoxy-N-[1-(propan-2-yl)piperidin-4-yl]-6-[3-(pyrrolidin-1-yl)propoxy]-1,2,3,4-tetrahydroacridin-9-amine trifluoroacetate] | 11 |
| COc1cc2c(NC3CC(=O)N(C4CCC4)C3)c3ccccc3nc2cc1OCCCN1CCCC1 (centres unmarked) [Entry 87, 1-cyclobutyl-4-({2-methoxy-3-[3-(pyrrolidin-1-yl)propoxy]acridin-9-yl}amino)pyrrolidin-2-one trifluoroacetate] | 18.5 |
| CNc1c2ccccc2nc2cc(OCCCN3CCCC3)c(C)cc12 [Entry 11, N,2-dimethyl-3-[3-(pyrrolidin-1-yl)propoxy]acridin-9-amine formate] | 1230 |
| CNc1c2c(nc3cc(OCCCN4CCC(F)C4)c(OC)cc13)CCC2 (centres unmarked) [Entry 29, 6-[3-(3-fluoropyrrolidin-1-yl)propoxy]-7-methoxy-N-methyl-1H,2H,3H-cyclopenta[b]quinolin-9-amine] | 250 |
| COc1cc2c(NC3CCN(C)CC3)c3ccccc3nc2cc1OCCCN1CCCC1 [Entry 4, 2-methoxy-N-(1-methylpiperidin-4-yl)-3-[3-(pyrrolidin-1-yl)propoxy]acridin-9-amine trifluoroacetate] | 1.1 |
| COc1cc2c(NCCC#N)c3ccccc3nc2cc1OCCCN1CCCC1 [Entry 98, 3-({2-methoxy-3-[3-(pyrrolidin-1-yl)propoxy]acridin-9-yl}amino)propanenitrile trifluoroacetate] | 6.8 |
| COc1cc2c(NC3CC4CCC(C3)O4)c3ccccc3nc2cc1OCCCN1CCCC1 (centres unmarked) [Entry 80, 2-methoxy-N-{8-oxabicyclo[3.2.1]octan-3-yl}-3-[3-(pyrrolidin-1-yl)propoxy]acridin-9-amine formate] | 65.3 |
| CNc1c2ccccc2nc2cc(OCCCN3CCCC3)ccc12 [Entry 10, N-methyl-3-[3-(pyrrolidin-1-yl)propoxy]acridin-9-amine formate] | 56.7 |
| COc1cc2c(NC3CC(OC)C3)c3c(nc2cc1OCCCN1CCCC1)CCC3 (centres unmarked) [Entry 56, 7-methoxy-N-(3-methoxycyclobutyl)-6-[3-(pyrrolidin-1-yl)propoxy]-1H,2H,3H-cyclopenta[b]quinolin-9-amine formate] | 16 |
| COc1cc2c(N[C@H]3C[C@@H](O)C3)c3c(nc2cc1OCCCN1CCCC1)CCC3 [Entry 57, (1s,3s)-3-({7-methoxy-6-[3-(pyrrolidin-1-yl)propoxy]-1H,2H,3H-cyclopenta[b]quinolin-9-yl}amino)cyclobutan-1-ol formate] | 33.1 |
| COc1cc2c(NC3CNC(=O)C3)c3c(nc2cc1OCCCN1CCCC1)CCC3 (centres unmarked) [Entry 60, 4-({7-methoxy-6-[3-(pyrrolidin-1-yl)propoxy]-1H,2H,3H-cyclopenta[b]quinolin-9-yl}amino)pyrrolidin-2-one trifluoroacetate] | 14.6 |
| COCCCNc1c2c(nc3cc(OCCCN4CCCC4)c(OC)cc13)CCC2 [Entry 73, 7-methoxy-N-(3-methoxypropyl)-6-[3-(pyrrolidin-1-yl)propoxy]-1H,2H,3H-cyclopenta[b]quinolin-9-amine formate] | 11.2 |
| CNc1c2ccccc2nc2cc(OCCCN(C)C)c(OC)cc12 [Entry 119, 3-[3-(dimethylamino)propoxy]-2-methoxy-N-methylacridin-9-amine trifluoroacetate] | 28.5 |
| COc1cc2c(NCC3CC3)c3c(nc2cc1OCCCN1CCCC1)CCC3 [Entry 32, N-(cyclopropylmethyl)-7-methoxy-6-[3-(pyrrolidin-1-yl)propoxy]-1H,2H,3H-cyclopenta[b]quinolin-9-amine formate] | 14 |
| COc1cc2c(NC(C)C)c3c(nc2cc1OCCCN1CCCC1)CCC3 [Entry 19, 7-methoxy-N-(propan-2-yl)-6-[3-(pyrrolidin-1-yl)propoxy]-1H,2H,3H-cyclopenta[b]quinolin-9-amine formate] | 10 |
| COC(=O)CNc1c2ccccc2nc2cc(OCCCN3CCCC3)c(OC)cc12 [Entry 105, methyl 2-({2-methoxy-3-[3-(pyrrolidin-1-yl)propoxy]acridin-9-yl}amino)acetate formate] | 20.6 |
| COc1ccc2nc3cc(OCCCN4CCCC4)c(OC)cc3c(NC3CCOCC3)c2c1 [Entry 115, 2,7-dimethoxy-N-(oxan-4-yl)-3-[3-(pyrrolidin-1-yl)propoxy]acridin-9-amine trifluoroacetate] | 215 |
| COc1cc2c(NCC(C)(C)O)c3cccnc3nc2cc1OCCCN1CCCC1 [Entry 123, 1-({7-methoxy-8-[3-(pyrrolidin-1-yl)propoxy]benzo[b]1,8-naphthyridin-5-yl}amino)-2-methylpropan-2-ol formate] | 251 |
| COc1cc2c(NCC3COC3)c3c(nc2cc1OCCCN1CCCC1)CCC3 [Entry 39, 7-methoxy-N-[(oxetan-3-yl)methyl]-6-[3-(pyrrolidin-1-yl)propoxy]-1H,2H,3H-cyclopenta[b]quinolin-9-amine formate] | 20 |
